Columns and labels:
[1] = biological target: T1, recombinant Tdp1 (residues 149–608) (Homo sapiens, UniProt Q9NUW8); assay: Intrinsic tryptophan fluorescence quenching binding assay; conditions: 10 µM Tdp1, 20 mM Tris, 250 mM NaCl, pH 8; triplicate
T1 construct: recombinant Tdp1 (residues 149–608) was obtained from GenScript; host or cells: E. coli BL21(DE3)
Experimental: The binding of the synthesized compounds to recombinant Tdp1 was also tested (Table 1 and Table 2) by using an intrinsic tryptophan fluorescence quenching assay. […] As our compounds are aromatic in nature, there is a possibility that they may bind to both the active site as well as non-specifically to the DNA/peptide binding pockets. Nonetheless, our results confirmed that the compounds were indeed binders of Tdp1, thus complementing our inhibition data.
pET-28a(+) plasmid encoding recombinant Tdp1 (residues 149–608) was obtained from GenScript. E. coli BL21(DE3) was used for recombinant protein production. Protein production was induced with 1 mM IPTG at 28 °C with overnight incubation. Tdp1 was purified using affinity and size exclusion chromatography. Fluorescence was measured using a PerkinElmer EnSpire Multimode Reader. Tdp1 concentration was 10 μM with varying compound concentrations. The buffer was 20 mM Tris and 250 mM NaCl (pH 8). The excitation wavelength was 280 nm and intrinsic fluorescence was measured at 350 nm. Control experiments with Tdp1 or the compound on its own were also conducted. Background fluorescence arising from the compounds was subtracted from the final spectrum. The total volume per well was 30 μL. The dissociation constant (KD) was calculated using Equation (1), which takes non-specific binding into account. y = Bmaxx/(KD + x) + Nsx(1) where y denotes the changes in fluorescence intensity; x denotes the concentration of the compounds; Bmax denotes the maximum changes in fluorescence intensity; and Ns is a scaling factor for non-specific binding. Experiments were conducted in triplicate.

Tdp1 = biological target: T2, Tdp1 (Homo sapiens, UniProt Q9NUW8); assay: Real-time detection of Tdp1 activity (5'-FAM/3'-BHQ1 oligonucleotide biosensor); format: biochemical; conditions: 1.5 nM Tdp1, 50 nM oligonucleotide substrate, 26 °C
T2 construct: made in house; host or cells: Escherichia coli
T2 sequence (Q9NUW8 whole entry): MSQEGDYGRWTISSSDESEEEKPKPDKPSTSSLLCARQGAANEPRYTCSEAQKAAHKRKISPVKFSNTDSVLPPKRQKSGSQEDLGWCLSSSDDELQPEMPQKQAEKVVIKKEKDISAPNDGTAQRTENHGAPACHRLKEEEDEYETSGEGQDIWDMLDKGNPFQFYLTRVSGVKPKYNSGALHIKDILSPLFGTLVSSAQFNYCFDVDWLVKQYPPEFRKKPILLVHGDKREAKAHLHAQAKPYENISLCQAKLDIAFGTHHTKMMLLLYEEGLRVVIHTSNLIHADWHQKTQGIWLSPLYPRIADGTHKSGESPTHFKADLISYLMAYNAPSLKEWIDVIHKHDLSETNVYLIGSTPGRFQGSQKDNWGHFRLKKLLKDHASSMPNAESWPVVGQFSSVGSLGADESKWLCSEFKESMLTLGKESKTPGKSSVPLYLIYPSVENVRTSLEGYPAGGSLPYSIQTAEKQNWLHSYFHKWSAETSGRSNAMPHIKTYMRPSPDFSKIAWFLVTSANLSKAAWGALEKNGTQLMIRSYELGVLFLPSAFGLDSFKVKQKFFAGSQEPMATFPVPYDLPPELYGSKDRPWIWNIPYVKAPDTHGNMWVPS
Text: We first studied the inhibition potency of our compounds to Tdp1 by using a real-time oligonucleotide biosensor assay that we have previously developed. The assay was based on the ability of Tdp1 to remove the fluorescence quencher from the 3’-end of DNA. The substrate is a 16-mer single-stranded oligonucleotide containing both a 5’-FAM fluorophore and a 3’-BHQ1 quencher.
A fluorophore quencher-coupled DNA-biosensor for real-time measurement of Tdp1 cleavage activity was recently designed in our laboratory. The biosensor is a 16-mer single-stranded oligonucleotide containing both a 5’-FAM fluorophore donor and a quenching 3’-BHQ1 moiety.
Recombinant protein Tdp1 was expressed in EsCherichia coli (pET 16B plasmid containing Tdp1 cDNA provided by Dr. K.W. Caldecott, University of Sussex, United Kingdom) and isolated as described. The reaction mixture in a final volume 200 μL contained Tdp1 reaction buffer (50 mM Tris-HCl, 50 mM NaCl, 7 mM β-mercaptoethanol), 50 nM oligonucleotide substrate, and varied concentrations of potential inhibitor. Purified Tdp1 was added in a final concentration of 1.5 nM.
The reaction mixtures were incubated at a constant temperature of 26 °C in a POLARstar OPTIMA fluorimeter, BMG LABTECH, GmbH, to measure fluorescence intensity every minute (Ex485/Em520 nm). Tdp1 inhibition was calculated by comparing the rate of increase in fluorescence of the biosensor in the presence of the compound to that of DMSO (1.5%) control wells. The measurements were carried out in at least two independent experiments. IC50 values were determined using a six-point concentration response curve. The data were imported into the MARS Data Analysis 2.0 program (BMG LABTECH) and the slope during the linear phase (data from 0 to 7 min) was calculated.

T1 sequence (Q9NUW8 149-608): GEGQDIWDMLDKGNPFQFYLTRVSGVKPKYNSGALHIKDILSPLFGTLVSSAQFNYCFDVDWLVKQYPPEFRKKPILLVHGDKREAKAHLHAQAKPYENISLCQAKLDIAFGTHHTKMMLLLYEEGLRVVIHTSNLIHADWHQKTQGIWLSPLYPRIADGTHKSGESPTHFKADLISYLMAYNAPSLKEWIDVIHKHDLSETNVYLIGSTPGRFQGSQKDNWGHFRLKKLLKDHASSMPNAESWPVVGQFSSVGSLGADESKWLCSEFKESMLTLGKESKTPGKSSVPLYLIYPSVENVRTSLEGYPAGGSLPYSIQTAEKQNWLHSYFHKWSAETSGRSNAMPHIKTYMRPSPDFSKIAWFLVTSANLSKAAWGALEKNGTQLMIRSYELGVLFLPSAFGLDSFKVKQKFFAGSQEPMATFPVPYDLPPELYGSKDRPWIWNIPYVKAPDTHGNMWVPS

| Compound | Kd [1] [µM] | IC50 (Tdp1) [µM] |
| --- | --- | --- |
| CC(=O)C1=C(O)C=C2Oc3c(-c4csc(N/N=C/c5ccoc5)n4)c(O)c(C)c(O)c3[C@]2(C)C1=O [(−)-16l, (2S)-4-Acetyl-5,11,13-trihydroxy-2,12-dimethyl-10-{2-[(E)-2-[(furan-3-yl)methylidene] hydrazin-1-yl]-1,3-thiazol-4-yl}-8-oxatricyclo[7.4.0.0^2,7]trideca-1(9),4,6,10,12-pentaen-3-one] | 233 ± 9 | 0.178 ± 0.004 |
| COc1ccc(/C=N/Nc2nc(-c3c(O)c(C)c(O)c4c3OC3=CC(O)=C(C(C)=O)C(=O)[C@]34C)cs2)cc1COc1ccc(F)c(Cl)c1 [(−)-17d, (2S)-4-Acetyl-10-{2-[(E)-2-({3-[(3-chloro-4-fluorophenoxy)methyl]-4-methoxyphenyl}methylidene)hydrazin-1-yl]-1,3-thiazol-4-yl}-5,11,13-trihydroxy-2,12-dimethyl-8-oxatricyclo[7.4.0.0^2,7]trideca-1(9),4,6,10,12-pentaen-3-one] | 76 ± 5 | 0.018 ± 0.001 |
| (2R)-4-Acetyl-5,11,13-trihydroxy-2,12-dimethyl-10-{2-[(E)-2-[(thiophen-3-yl)methylidene] hydrazin-1-yl]-1,3-thiazol-4-yl}-8-oxatricyclo[7.4.0.0^2,7]trideca-1(9),4,6,10,12-pentaen-3-one amine [(+)-16j] | 65 ± 7 | 0.107 ± 0.031 |
| COc1ccc(/C=N/Nc2nc(-c3c(O)c(C)c(O)c4c3OC3=CC(O)=C(C(C)=O)C(=O)[C@@]34C)cs2)cc1CN1CCN(c2ccc(F)cc2)CC1 [(+)-17i, (2R)-4-Acetyl-10-{2-[(E)-2-[(3-{[4-(4-fluorophenyl)piperazin-1-yl]methyl}-4-methoxyphenyl)methylidene]hydrazin-1-yl]-1,3-thiazol-4-yl}-5,11,13-trihydroxy-2,12-dimethyl-8-oxatricyclo[7.4.0.0^2,7]trideca-1(9),4,6,10,12-pentaen-3-one] | 161 ± 22 | 0.08 ± 0.007 |
| CC(=O)C1=C(O)C=C2Oc3c(-c4csc(N/N=C/c5cccs5)n4)c(O)c(C)c(O)c3[C@]2(C)C1=O [(−)-16g, (2S)-4-Acetyl-5,11,13-trihydroxy-2,12-dimethyl-10-{2-[(E)-2-[(thiophen-2-yl)methylidene]hydrazin-1-yl]-1,3-thiazol-4-yl}-8-oxatricyclo[7.4.0.0^2,7]trideca-1(9),4,6,10,12-pentaen-3-one] | 281 ± 25 | 0.169 ± 0.006 |
| CC(=O)C1=C(O)C=C2Oc3c(-c4csc(N/N=C/c5cccn5C)n4)c(O)c(C)c(O)c3[C@@]2(C)C1=O [(+)-16n, (2R)-4-Acetyl-5,11,13-trihydroxy-2,12-dimethyl-10-{2-[(E)-2-[(1-methyl-pyrrol-2-yl)methylidene]hydrazin-1-yl]-1,3-thiazol-4-yl}-8-oxatricyclo[7.4.0.0^2,7]trideca-1(9),4,6,10,12-pentaen-3-one] | 719 ± 17 | 0.151 ± 0.014 |
| COc1ccc(/C=N/Nc2nc(-c3c(O)c(C)c(O)c4c3OC3=CC(O)=C(C(C)=O)C(=O)[C@@]34C)cs2)cc1Cn1nc(C)c([N+](=O)[O-])c1C [(+)-17k, (2R)-4-Acetyl-10-{2-[(E)-2-({3-[(3,5-dimethyl-4-nitro-1H-pyrazol-1-yl)methyl]-4-methoxyphenyl}methylidene)hydrazin-1-yl]-1,3-thiazol-4-yl}-5,11,13-trihydroxy-2,12-dimethyl-8-oxatricyclo[7.4.0.0^2,7]trideca-1(9),4,6,10,12-pentaen-3-one] | 156 ± 8 | 0.054 ± 0.008 |
| CC(=O)C1=C(O)C=C2Oc3c(-c4csc(N/N=C/c5ccncc5)n4)c(O)c(C)c(O)c3[C@@]2(C)C1=O [(+)-16a, 4-[(1E)-(2-{4-[(1R)-12-Acetyl-3,5,11-trihydroxy-1,4-dimethyl-13-oxo-8-oxatricyclo[7.4.0.0^2,7]trideca-2(7),3,5,9,11-pentaen-6-yl]-1,3-thiazol-2-yl}hydrazin-1-ylidene)methyl]pyridin-1-ium bromide] | 139 ± 32 | 0.16 ± 0.016 |
